Key:
[1] = tested on: T1, 2,4-dichlorophenol-6-monooxygenase (24DCPM); assay: spectrophotometric NAD(P)H consumption at […] nm, Michaelis-Menten fit; type: biochemical, Cupriavidus sp. DSPFs; settings: 50 µM 2,4-dichlorophenol; phosphate buffer 50 mM pH 7.5; 6.25 µM FAD; read-out: Km (μM) / I^a
T1 construct: gene tfdB; homotetramer ~255 kDa, subunit ~65 kDa

[2] = tested on: T1, 2,4-dichlorophenol-6-monooxygenase (24DCPM); assay: spectrophotometric NAD(P)H consumption at […] nm, uncompetitive substrate inhibition fit; type: biochemical, Cupriavidus sp. DSPFs; settings: 200 µM NADH; phosphate buffer 50 mM pH 7.5; 6.25 µM FAD; read-out: Km (μM) / I^a
[3] = biological target: T1, 2,4-dichlorophenol-6-monooxygenase (24DCPM); assay: as above; type: biochemical, Cupriavidus sp. DSPFs; settings: substrate inhibition constant; 200 µM NADH; phosphate buffer 50 mM pH 7.5; 6.25 µM FAD
[4] = biological target: 2,4-dichlorophenol-6-monooxygenase from Cupriavidus sp. strain DSPFs (Cupriavidus sp. strain DSPFs); assay: SEC; ENrich SEC 650 column (24 mL) in 50 mM potassium phosphate buffer pH 7.5, 4°C; calibrated with mass markers from 12.4 to 669 kDa; native mass from log(mol mass) versus Ve/V0, compared with the subunit mass from SDS-PAGE

Compound `NC(=O)C1=CN([C@@H]2O[C@H](COP(=O)(O)OP(=O)(O)OC[C@H]3O[C@@H](n4cnc5c(N)ncnc54)[C@H](OP(=O)(O)O)[C@@H]3O)[C@@H](O)[C@H]2O)C=CC1` [NADPH] has a Km [1] of 46.8 ± 6 µM.
`Oc1ccc(Cl)cc1Cl` [2,4-DCP, 2,4-dichlorophenol] was tested, and the Km [2] was 3.1 ± 0.8 µM and the “Ki (μM) / I” value [3] was 374 ± 80 µM.
With “2,4-dichlorophenol-6-monooxygenase from Cupriavidus sp. strain DSPFs (enzyme)” the stoichiometry N [4] was 4.
`NC(=O)C1=CN([C@@H]2O[C@H](COP(=O)(O)OP(=O)(O)OC[C@H]3O[C@@H](n4cnc5c(N)ncnc54)[C@H](O)[C@@H]3O)[C@@H](O)[C@H]2O)C=CC1` [NADH] gave a Km [1] of 205 ± 47 µM.

Reference: PMC12584615, “Degradation of 2,4-D by plant growth-promoting Cupriavidus sp. DSPFs: role in mitigating herbicide toxicity in soil and enhancing crop production” (Microbiology Spectrum, 2025)
